Measurements reported in patent publication US7638056B2, “Treatment of sewage sludge” (Rhodia Operations, priority 2003, dated 2009).
Read-outs that look alike come from different tables or passages of the source.

Test system: E. coli
Details: for time/kill response over the first 6 hours contact time / contact time to total kill: FIG. 1; for contact time to total kill: sterile sludge, 22° C., about 10^8 cells per ml
Text: The methodology adopted to evaluate biocide performance was by Quantitative Suspension Test (QST) using sterile anaerobic digester sludge as the QST medium, back-inoculated with E. coli cultures previously isolated from the sludge. In this way, a consistent chemical environment (sterile sludge) could be used in conjunction with a defined bacterial challenge. This enables the provision of consistency between tests.
The E. coli strains used in QST had been isolated from raw-sludge samples.
QST were performed as follows: • Sterile sludge (19 ml) was dispensed into sterile, screw-cap, plastics universal bottles of nominal 30 ml capacity. • To each sample was added 0.5 ml of a washed cell suspension of E. coli prepared from a 16-hour culture incubated at 44° C. in Tryptose Soy Broth, which had been centrifuged (14500 rpm for 10 min.) and re-suspended in sterile phosphate buffer (0.2M at pH 7.2). An inoculum of 0.5 ml was sufficient to provide a final cell concentration of about 10^8 per ml in 20 ml of QST medium. • Fresh stock solutions of the candidate treatment chemicals were prepared in sterile phosphate buffer (0.2M at pH 7.2) at concentrations such that when 0.5 ml was added to the QST medium (final volume 20 ml) the desired final concentration of biocide was achieved. • The QST medium was mixed thoroughly and held at 22° C. for the duration of the test. • At intervals during the test, the sludge was well mixed and samples (1.0 ml) were removed from the QST medium and inoculated into the first tube of a dilution series containing MacConkey broth supplemented with sodium thiosulphate (5.0 g/l), to inactivate any residual biocide carried into the dilution series.
The end point was scored as the highest dilution in the series to show a change in colour from purple to yellow and to have developed turbidity.
MacConkey Broth was selected as this medium contains the pH indicator Bromocresol Purple that changes from purple to yellow as the medium becomes acidic. This is a useful indirect indicator of microbial growth (organic acid production) where this cannot be scored by the development of turbidity in an initially clear medium. Because the sludge contains suspended solids the first 2 tubes of the dilution series instantaneously develop turbidity on the addition of the sludge. This precludes using turbidity alone as an indicator of microbial growth.

Molecule | log reduction in numbers (500 mg/l active ingredient, after 48 hours, FIG. 3) [log] | time/kill response over the first 6 hours contact time (250 mg/l) | contact time to total kill (250 mg/l) [h] | time/kill response over the first 6 hours contact time (500 mg/l) | contact time to total kill (500 mg/l) [h] | time/kill response over the first 6 hours contact time (1000 mg/l) | contact time to total kill (1000 mg/l) [h] | anti-microbial performance (Phosphonium Salt compared with DBNPA) (equal active-ingredient concentration of 500 mg/l, FIG. 3)
N#CC(Br)(Br)C(N)=O [DBNPA, dibromo-nitrilo-propionamide, reference compound] | 2.5 |  |  |  |  |  |  | 
tetrakis(hydroxymethyl) phosphonium sulphate [Phosphonium Salt] |  | fairly flat | ≤ 48 | fairly flat | ≤ 48 | more progressive | ≤ 24 | superior
